# US8846653B2, “Delta-tocotrienol treatment and prevention of pancreatic cancer” (University of South Florida, priority 2006, dated 2014)
# Assays:
# Type in all cases: cell-based, human
# [1] = test system: SW1990 pancreatic cancer cells; assay: MTS assay of SW1990 cultures, single 50 μM dose; conditions: SW1990, 50 μM
# Method: SW1990 pancreatic cancer cells […] were cultured in complete DMEM media containing 10% fetal bovine serum (FBS) and 1% penicillin-streptomycin, and 1% L-glutamine. BxPc-3 pancreatic cancer cells were cultured in complete RPMI media containing 10% fetal bovine serum (FBS), and 1% penicillin-streptomycin, 1% HEPES buffer, 1% sodium pyruvate and 1% L-glutamine. HPDE6-C7 cells were cultured in serum-free keratinocyte SFM media. All cells were maintained at 37° C. in a humidified incubator with 5% CO2. The cells were treated with a single 50 μM dose of vehicle (ethanol extracted olive oil), T3 alpha (alpha tocotrienol), T3 beta (beta tocotrienol), T3 gamma (gamma tocotrienol), T3 delta (delta tocotrienol), T alpha (alpha tocopherol), T beta (beta tocopherol), TS (tocopherol succinate), GG (geranylgeraniol), SA (succinic acid). A control culture (i.e., only vehicle with no treatment) was grown alongside the treatments for comparison. Cell viability was measured using MTS assay at preselect times of 24, 48, or 72 hours after treatment.
# BXPC3 cells = assay: MTT assay of BXPC3 cultures, single 50 μM dose; set-up: MTT assay result, run 1 / MTT assay result, run 2 / MTT assay result, run 3 / MTT assay result, run 4 / MTT assay result, run 5 / MTT assay result, run 6 / MTT assay result, run 7 / MTT assay result, av (average) / MTT assay result, av-blank / MTT assay result, av: unit not given here; conditions: BXPC3, 50 μM; for MTT assay result, av-blank: average minus blank
# Method: BXPC3 cells were cultured in complete […] media containing 10% fetal bovine serum (FBS) and 1% penicillin-streptomycin, and 1% L-glutamine. BxPc-3 pancreatic cancer cells were cultured in complete RPMI media containing 10% fetal bovine serum (FBS), and 1% penicillin-streptomycin, 1% HEPES buffer, 1% sodium pyruvate and 1% L-glutamine HPDE6-C7 cells were cultured in serum-free keratinocyte SFM media. All cells were maintained at 37° C. in a humidified incubator with 5% CO2. The cells were treated with a single 50 μM dose of vehicle (vehicle only, may be a solvent), T3 alpha (alpha tocotrienol), T3 beta (beta tocotrienol), T3 gamma (gamma tocotrienol), T3 delta (delta tocotrienol), T alpha (alpha tocopherol), T beta (beta tocopherol), TS (tocopherol succinate), GG (geranylgeraniol), SA (succinic acid). A control (no treatment) culture was grown alongside the treatments for comparison. Cell viability was measured using MTT assay at preselect times of 48 or 120 hours after treatment.
# MiaPaCa-2 cells = assay: MTT assay of MiaPaCa2 cultures, single 50 μM dose; set-up: rel amt (relative value set to the control): unit not given here; conditions: MiaPaCa2, 50 μM; for MTT assay result, av-blank: average minus blank; for MTT assay result, av: average of 7 runs
# Method: MiaPaCa-2, BxPc-3, and HPDE6-C7 cells were cultured as described above, and treated with a single 50 μM dose of vehicle (ethanol extracted olive oil), T3 alpha (alpha tocotrienol), T3 beta (beta tocotrienol), T3 gamma (gamma tocotrienol), T3 delta (delta tocotrienol), T alpha (alpha tocopherol), T beta (beta tocopherol), TS (tocopherol succinate), GG (geranylgeraniol), SA (succinic acid). A control culture (vehicle only with no treatment) was grown alongside the treatments for comparison. Cell viability was measured using MTT assay at preselect times of 48 or 120 hours after treatment.
structure (smiles),measurement,setting,value
"CC(C)=CCC/C(C)=C/CC/C(C)=C/CC[C@]1(C)CCc2cc(O)cc(C)c2O1 [T3 delta, delta tocotrienol]",rel amnt (relative value set to the control),[1]; 24 hours,97
same,"MTS assay result, run 1",[1]; 24 hours,0.158
same,"MTS assay result, run 2",[1]; 24 hours,0.149
same,"MTS assay result, run 3",[1]; 24 hours,0.157
same,"MTS assay result, run 4",[1]; 24 hours,0.126
same,"MTS assay result, run 5",[1]; 24 hours,0.147
same,"MTS assay result, run 6",[1]; 24 hours,0.135
same,"MTS assay result, run 7",[1]; 24 hours,0.13
same,"MTS assay result, run 8",[1]; 24 hours,0.142
same,"MTS assay result, run 9",[1]; 24 hours,0.143
same,rel amnt (relative value set to the control),[1]; 48 hours,83
same,"MTS assay result, run 1",[1]; 48 hours,0.131
same,"MTS assay result, run 2",[1]; 48 hours,0.133
same,"MTS assay result, run 3",[1]; 48 hours,0.12
same,"MTS assay result, run 4",[1]; 48 hours,0.12
same,"MTS assay result, run 5",[1]; 48 hours,0.126
same,"MTS assay result, run 6",[1]; 48 hours,0.119
same,"MTS assay result, run 7",[1]; 48 hours,0.12
same,"MTS assay result, run 8",[1]; 48 hours,0.142
same,"MTS assay result, run 9",[1]; 48 hours,0.127
same,rel amnt (relative value set to the control),[1]; 72 hours,132
same,"MTS assay result, run 1",[1]; 72 hours,0.667
same,"MTS assay result, run 2",[1]; 72 hours,0.615
same,"MTS assay result, run 3",[1]; 72 hours,0.61
same,"MTS assay result, run 4",[1]; 72 hours,0.587
same,"MTS assay result, run 5",[1]; 72 hours,0.582
same,"MTS assay result, run 6",[1]; 72 hours,0.491
same,"MTS assay result, run 7",[1]; 72 hours,0.52
same,"MTS assay result, run 8",[1]; 72 hours,0.604
same,"MTS assay result, run 9",[1]; 72 hours,0.584
same,rel amt (relative value set to the control),BXPC3 cells; 48 hours,95
same,"MTT assay result, av-blank",BXPC3 cells; 48 hours,0.216
same,"MTT assay result, av (average)","BXPC3 cells; 48 hours, average of 7 runs",0.265
same,"MTT assay result, run 1",BXPC3 cells; 48 hours,0.26
same,"MTT assay result, run 2",BXPC3 cells; 48 hours,0.255
same,"MTT assay result, run 3",BXPC3 cells; 48 hours,0.24
same,"MTT assay result, run 4",BXPC3 cells; 48 hours,0.263
same,"MTT assay result, run 5",BXPC3 cells; 48 hours,0.271
same,"MTT assay result, run 6",BXPC3 cells; 48 hours,0.277
same,"MTT assay result, run 7",BXPC3 cells; 48 hours,0.288
same,rel amt (relative value set to the control),BXPC3 cells; 120 hours (5 days),81
same,"MTT assay result, av-blank",BXPC3 cells; 120 hours (5 days),0.465
same,"MTT assay result, av","BXPC3 cells; 120 hours (5 days), average of 7 runs",0.520
same,"MTT assay result, run 1",BXPC3 cells; 120 hours (5 days),0.485
same,"MTT assay result, run 2",BXPC3 cells; 120 hours (5 days),0.49
same,"MTT assay result, run 3",BXPC3 cells; 120 hours (5 days),0.522
same,"MTT assay result, run 4",BXPC3 cells; 120 hours (5 days),0.539
same,"MTT assay result, run 5",BXPC3 cells; 120 hours (5 days),0.551
same,"MTT assay result, run 6",BXPC3 cells; 120 hours (5 days),0.523
same,"MTT assay result, run 7",BXPC3 cells; 120 hours (5 days),0.527
same,rel amt (relative value set to the control),MiaPaCa-2 cells; 48 hours,70
same,"MTT assay result, av-blank",MiaPaCa-2 cells; 48 hours,0.217
same,"MTT assay result, av",MiaPaCa-2 cells; 48 hours,0.263
same,"MTT assay result, run 1",MiaPaCa-2 cells; 48 hours,0.276
same,"MTT assay result, run 2",MiaPaCa-2 cells; 48 hours,0.284
same,"MTT assay result, run 3",MiaPaCa-2 cells; 48 hours,0.262
same,"MTT assay result, run 4",MiaPaCa-2 cells; 48 hours,0.239
same,"MTT assay result, run 5",MiaPaCa-2 cells; 48 hours,0.275
same,"MTT assay result, run 6",MiaPaCa-2 cells; 48 hours,0.239
same,"MTT assay result, run 7",MiaPaCa-2 cells; 48 hours,0.269
same,rel amt (relative value set to the control),MiaPaCa-2 cells; 120 hours (5 days),72
same,"MTT assay result, av-blank",MiaPaCa-2 cells; 120 hours (5 days),1.304
same,"MTT assay result, av",MiaPaCa-2 cells; 120 hours (5 days),1.356
same,"MTT assay result, run 1",MiaPaCa-2 cells; 120 hours (5 days),1.344
same,"MTT assay result, run 2",MiaPaCa-2 cells; 120 hours (5 days),1.314
same,"MTT assay result, run 3",MiaPaCa-2 cells; 120 hours (5 days),1.27
same,"MTT assay result, run 4",MiaPaCa-2 cells; 120 hours (5 days),1.337
same,"MTT assay result, run 5",MiaPaCa-2 cells; 120 hours (5 days),1.579
same,"MTT assay result, run 6",MiaPaCa-2 cells; 120 hours (5 days),1.308
same,"MTT assay result, run 7",MiaPaCa-2 cells; 120 hours (5 days),1.341
